What was measured:
[1] = refractive index (Na D-line) (dimensionless); xn = mol fraction of the nth substance listed; settings: 100.5 kPa, Liquid, Standard Abbe refractometry
[2] = xn = mol fraction of the nth substance listed

CCOC(=O)Cc1ccccc1 [ethyl phenylacetate] + CCO
Settings | refractive index, 288.15 K | refractive index, 298.15 K | refractive index, 308.15 K | refractive index, 318.15 K | surface tension liquid-gas, 288.15 K [mN/m] | surface tension liquid-gas, 298.15 K [mN/m] | surface tension liquid-gas, 308.15 K [mN/m] | surface tension liquid-gas, 318.15 K [mN/m]
[1], x1 = 0.05 | 1.38109 | 1.37693 | 1.37265 | 1.36852 | – | – | – | –
[1], x1 = 0.1 | 1.39604 | 1.3918 | 1.38745 | 1.38323 | – | – | – | –
[1], x1 = 0.15 | 1.4087 | 1.40441 | 1.40003 | 1.39573 | – | – | – | –
[1], x1 = 0.2 | 1.41969 | 1.41536 | 1.41093 | 1.40653 | – | – | – | –
[1], x1 = 0.25 | 1.42932 | 1.42491 | 1.42047 | 1.41597 | – | – | – | –
[1], x1 = 0.3 | 1.4379 | 1.43347 | 1.42899 | 1.42447 | – | – | – | –
[1], x1 = 0.35 | 1.44556 | 1.44111 | 1.43661 | 1.43203 | – | – | – | –
[1], x1 = 0.4 | 1.45242 | 1.44792 | 1.44342 | 1.43878 | – | – | – | –
[1], x1 = 0.45 | 1.45856 | 1.45402 | 1.44951 | 1.44484 | – | – | – | –
[1], x1 = 0.5 | 1.46406 | 1.45953 | 1.455 | 1.4503 | – | – | – | –
[1], x1 = 0.55 | 1.46909 | 1.46454 | 1.45999 | 1.45524 | – | – | – | –
[1], x1 = 0.6 | 1.47365 | 1.46908 | 1.46451 | 1.45975 | – | – | – | –
[1], x1 = 0.65 | 1.47785 | 1.47324 | 1.46869 | 1.46391 | – | – | – | –
[1], x1 = 0.7 | 1.48174 | 1.47713 | 1.47255 | 1.46775 | – | – | – | –
[1], x1 = 0.75 | 1.48536 | 1.48072 | 1.47613 | 1.47132 | – | – | – | –
[1], x1 = 0.8 | 1.48865 | 1.48403 | 1.47943 | 1.47458 | – | – | – | –
[1], x1 = 0.85 | 1.4917 | 1.48707 | 1.48248 | 1.47763 | – | – | – | –
[1], x1 = 0.9 | 1.49461 | 1.48996 | 1.48539 | 1.48053 | – | – | – | –
[1], x1 = 0.95 | 1.4973 | 1.49266 | 1.4881 | 1.48323 | – | – | – | –
[1], x1 = 1 | 1.49971 | 1.49513 | 1.49063 | 1.48583 | – | – | – | –
[2], x1 = 0.05 | – | – | – | – | 23.9 | 23.1 | 22.2 | 21.2
[2], x1 = 0.1 | – | – | – | – | 24.6 | 23.7 | 22.8 | 21.8
[2], x1 = 0.15 | – | – | – | – | 25.2 | 24.3 | 23.4 | 22.4
[2], x1 = 0.2 | – | – | – | – | 25.9 | 24.9 | 23.9 | 22.9
[2], x1 = 0.25 | – | – | – | – | 26.5 | 25.5 | 24.5 | 23.5
[2], x1 = 0.3 | – | – | – | – | 27.2 | 26.1 | 25.1 | 24.1
[2], x1 = 0.35 | – | – | – | – | 27.8 | 26.7 | 25.7 | 24.7
[2], x1 = 0.4 | – | – | – | – | 28.4 | 27.3 | 26.2 | 25.4
[2], x1 = 0.45 | – | – | – | – | 29.1 | 27.9 | 26.8 | 26
[2], x1 = 0.5 | – | – | – | – | 29.7 | 28.5 | 27.4 | 26.6
[2], x1 = 0.55 | – | – | – | – | 30.3 | 29.1 | 28 | 27.2
[2], x1 = 0.6 | – | – | – | – | 31 | 29.7 | 28.6 | 27.8
[2], x1 = 0.65 | – | – | – | – | 31.6 | 30.3 | 29.2 | 28.4
[2], x1 = 0.7 | – | – | – | – | 32.2 | 30.9 | 29.8 | 29
[2], x1 = 0.75 | – | – | – | – | 32.8 | 31.6 | 30.4 | 29.5
[2], x1 = 0.8 | – | – | – | – | 33.5 | 32.1 | 31 | 30.1
[2], x1 = 0.85 | – | – | – | – | 34.1 | 32.8 | 31.6 | 30.7
[2], x1 = 0.9 | – | – | – | – | 34.7 | 33.4 | 32.2 | 31.4
[2], x1 = 0.95 | – | – | – | – | 35.3 | 33.9 | 32.8 | 32
[2], x1 = 1 | – | – | – | – | 35.9 | 34.6 | 33.5 | 32.8
